Test [1] concerns A2780. Kind of test: Induction of mitotic cell cycle arrest in human A2780 cells assessed as accumulation of cells at S phase at 100 nM after 24 hrs by flow cytometry (Rvb= 17.5%). In kind it is functional. For orientation: In flow cytometry, cells or beads pass a laser one at a time.
Test [2] is described as follows: Induction of mitotic cell cycle arrest in human A2780AD cells assessed as accumulation of cells at G2+M phase at 100 nM after 24 hrs by flow cytometry (Rvb= 20.5%). In kind it is functional, A2780 ADR.
The nature of test [3]: Induction of mitotic cell cycle arrest in potoroo PtK2 cells assessed as accumulation of cells at SubG1 phase at 5 uM treated for 7 hrs, washed followed by 48 hrs incubation by flow cytometry (Rvb= 1.1%). In kind it is functional, Potorous tridactylus.

SMILES strings stand for the structures.

Consider `CC1=C[C@H]2[C@@H](O)[C@H](C)[C@@H](O)[C@@H]2[C@H]2[C@@H]3C4=C5O[C@](C)(CC[C@@H](OC4=O)[C@H]5C)[C@@H]3C[C@@H]12` [CYCLOSTREPTIN], for which the Activity is given as 10.6% in test [1], 71% in test [2] and 5.4% in test [3].

The values above are taken from ChEMBL document CHEMBL1240321, “Cyclostreptin binds covalently to microtubule pores and lumenal taxoid binding sites” (Nat Chem Biol, 2007).
